In ChEMBL document CHEMBL5212743, “Selectivity Literature for EUbOPEN Chemogenomics Library wave 3” (2023):

Columns and labels:
[1] = target: Histone-lysine N-methyltransferase SMYD3 (Homo sapiens) (UniProt Q9H7B4); test: Selectivity interaction (Methyltransferase panel) EUB0000221b SMYD3; settings: at 10 µM
[2] = target: Tyrosine-protein kinase Fyn (Homo sapiens, UniProt P06241); test: Selectivity interaction (Kinase panel (HTRF assay)) EUB0000221b FYN
[3] = target: Muscarinic acetylcholine receptor M1 (Homo sapiens, UniProt P11229); test: Selectivity interaction (GPCR panel (PDSP screen)) EUB0000743a CHRM1
Sequence of Muscarinic acetylcholine receptor M1 (P11229 whole entry): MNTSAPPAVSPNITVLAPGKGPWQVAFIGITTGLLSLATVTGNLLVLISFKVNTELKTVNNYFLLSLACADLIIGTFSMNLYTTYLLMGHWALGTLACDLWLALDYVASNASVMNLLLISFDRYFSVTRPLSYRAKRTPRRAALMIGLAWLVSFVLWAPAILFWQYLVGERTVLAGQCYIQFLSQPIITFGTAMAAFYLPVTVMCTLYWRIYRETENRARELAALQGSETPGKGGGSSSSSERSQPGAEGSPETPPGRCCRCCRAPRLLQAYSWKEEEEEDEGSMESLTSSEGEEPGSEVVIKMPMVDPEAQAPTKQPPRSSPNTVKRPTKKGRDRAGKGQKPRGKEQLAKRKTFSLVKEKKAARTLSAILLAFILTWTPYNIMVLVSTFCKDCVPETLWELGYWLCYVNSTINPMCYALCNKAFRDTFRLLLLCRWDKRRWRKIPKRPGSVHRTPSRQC

[4] = target: Megakaryocyte-associated tyrosine-protein kinase (Homo sapiens) (UniProt P42679); test: Selectivity interaction (KinomeScan (DiscoverX)) EUB0000743a MATK; settings: Cellular assay (active RAS (KRAS, HRAS,NRAS) in Calu-1 cells ([…])): IC50 = 4120 nM, https://www.sgc-ffm.uni-frankfurt.d, at 1 µM
Sequence of Megakaryocyte-associated tyrosine-protein kinase (Homo sapiens) (P42679 whole entry): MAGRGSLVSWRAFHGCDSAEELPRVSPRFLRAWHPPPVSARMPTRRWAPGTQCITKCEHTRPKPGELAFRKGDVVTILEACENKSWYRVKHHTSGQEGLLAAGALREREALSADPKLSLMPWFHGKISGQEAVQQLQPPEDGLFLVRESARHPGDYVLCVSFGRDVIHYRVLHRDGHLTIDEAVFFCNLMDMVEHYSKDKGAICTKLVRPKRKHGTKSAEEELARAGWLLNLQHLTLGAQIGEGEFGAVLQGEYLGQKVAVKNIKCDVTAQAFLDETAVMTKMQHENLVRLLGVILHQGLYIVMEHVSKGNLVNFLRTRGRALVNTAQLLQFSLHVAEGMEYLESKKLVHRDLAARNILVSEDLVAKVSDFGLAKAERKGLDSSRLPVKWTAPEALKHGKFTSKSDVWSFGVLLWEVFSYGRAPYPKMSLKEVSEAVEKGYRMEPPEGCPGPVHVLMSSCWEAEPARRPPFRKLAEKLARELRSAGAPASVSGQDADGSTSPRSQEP

[5] = target: SRSF protein kinase 2 (Homo sapiens) (UniProt P78362); test: Selectivity interaction (KinomeScan (DiscoverX)) EUB0000743a SRPK2; settings: Cellular assay (active RAS (KRAS, HRAS,NRAS) in Calu-1 cells ([…])): IC50 = 4120 nM, https://www.sgc-ffm.uni-frankfurt.d, at 1 µM
Sequence of SRSF protein kinase 2 (Homo sapiens) (P78362 whole entry, looked up): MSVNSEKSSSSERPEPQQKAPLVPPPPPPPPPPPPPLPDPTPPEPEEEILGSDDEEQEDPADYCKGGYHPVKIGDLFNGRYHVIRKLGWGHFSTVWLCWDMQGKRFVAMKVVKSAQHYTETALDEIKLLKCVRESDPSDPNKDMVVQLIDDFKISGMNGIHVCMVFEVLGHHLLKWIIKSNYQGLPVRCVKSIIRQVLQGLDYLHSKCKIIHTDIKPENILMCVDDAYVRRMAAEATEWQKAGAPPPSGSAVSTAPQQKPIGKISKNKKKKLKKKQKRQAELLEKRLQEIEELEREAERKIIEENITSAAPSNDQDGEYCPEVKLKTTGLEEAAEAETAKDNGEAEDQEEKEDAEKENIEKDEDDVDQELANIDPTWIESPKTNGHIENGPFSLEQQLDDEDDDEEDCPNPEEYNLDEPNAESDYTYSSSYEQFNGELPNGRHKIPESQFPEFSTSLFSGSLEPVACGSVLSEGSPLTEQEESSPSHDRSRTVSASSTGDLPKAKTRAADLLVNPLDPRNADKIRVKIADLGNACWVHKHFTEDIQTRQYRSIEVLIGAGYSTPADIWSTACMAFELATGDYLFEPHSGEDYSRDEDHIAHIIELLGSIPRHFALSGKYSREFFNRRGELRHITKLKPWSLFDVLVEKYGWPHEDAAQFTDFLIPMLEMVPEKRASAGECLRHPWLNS

Cannabinoid receptor 1 [6] = target: T1, Cannabinoid receptor 1 (Homo sapiens, UniProt P21554); test: Selectivity interaction (CNR1 functional assay (GTPyS binding)) EUB0000291b CNR1
T1 sequence (P21554 whole entry): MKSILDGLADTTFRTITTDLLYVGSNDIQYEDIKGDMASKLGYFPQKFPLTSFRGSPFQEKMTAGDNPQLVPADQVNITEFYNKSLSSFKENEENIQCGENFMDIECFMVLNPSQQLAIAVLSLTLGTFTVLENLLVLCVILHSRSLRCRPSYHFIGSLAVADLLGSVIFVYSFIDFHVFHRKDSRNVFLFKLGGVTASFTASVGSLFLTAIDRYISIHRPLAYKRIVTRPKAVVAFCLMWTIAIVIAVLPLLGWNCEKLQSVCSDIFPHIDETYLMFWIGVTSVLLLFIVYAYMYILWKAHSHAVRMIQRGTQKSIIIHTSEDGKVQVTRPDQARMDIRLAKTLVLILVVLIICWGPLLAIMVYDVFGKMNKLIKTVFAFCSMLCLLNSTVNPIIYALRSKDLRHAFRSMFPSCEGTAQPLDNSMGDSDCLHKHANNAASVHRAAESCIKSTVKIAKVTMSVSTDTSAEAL

Cannabinoid receptor 1 [7] = target: T1, Cannabinoid receptor 1; test: Selectivity interaction (Eurofins-Panlabs radioligand binding assay) EUB0000291b CNR1; settings: at 10 µM
[8] = target: Mitogen-activated protein kinase kinase kinase 12 (Homo sapiens) (UniProt Q12852); test: Selectivity interaction (KinomeScan (DiscoverX)) EUB0000291b MAP3K12; settings: at 1 µM
Sequence of Mitogen-activated protein kinase kinase kinase 12 (Homo sapiens) (Q12852 whole entry): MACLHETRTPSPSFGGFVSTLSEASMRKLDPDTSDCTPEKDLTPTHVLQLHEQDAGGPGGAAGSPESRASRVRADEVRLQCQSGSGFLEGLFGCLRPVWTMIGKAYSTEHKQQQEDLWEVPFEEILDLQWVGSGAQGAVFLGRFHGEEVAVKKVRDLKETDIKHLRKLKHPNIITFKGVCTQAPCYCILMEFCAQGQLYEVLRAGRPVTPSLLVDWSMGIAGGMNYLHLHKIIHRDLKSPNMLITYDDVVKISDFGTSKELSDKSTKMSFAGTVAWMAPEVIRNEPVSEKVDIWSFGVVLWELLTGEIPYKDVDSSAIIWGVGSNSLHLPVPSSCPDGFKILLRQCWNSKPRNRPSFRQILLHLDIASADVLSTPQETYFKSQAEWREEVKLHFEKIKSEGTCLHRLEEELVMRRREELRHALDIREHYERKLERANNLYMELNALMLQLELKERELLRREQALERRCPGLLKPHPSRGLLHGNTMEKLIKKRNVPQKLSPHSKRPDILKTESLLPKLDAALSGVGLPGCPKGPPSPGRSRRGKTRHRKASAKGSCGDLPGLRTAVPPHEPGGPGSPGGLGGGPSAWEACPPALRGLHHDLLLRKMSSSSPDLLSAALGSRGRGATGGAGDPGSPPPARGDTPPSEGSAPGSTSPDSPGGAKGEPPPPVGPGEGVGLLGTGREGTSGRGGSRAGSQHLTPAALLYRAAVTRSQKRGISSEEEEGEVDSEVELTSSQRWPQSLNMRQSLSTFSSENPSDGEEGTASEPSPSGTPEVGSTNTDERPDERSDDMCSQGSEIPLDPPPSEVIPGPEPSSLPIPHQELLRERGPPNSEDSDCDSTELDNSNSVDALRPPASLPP

[9] = target: Non-receptor tyrosine-protein kinase TYK2 (Homo sapiens, UniProt P29597); test: Selectivity interaction (KinomeScan (DiscoverX)) EUB0000291b TYK2; settings: at 1 µM
[10] = target: Serine/threonine-protein kinase DCLK2 (Homo sapiens) (UniProt Q8N568); test: Selectivity interaction (KinomeScan (DiscoverX)) EUB0000291b DCLK2; settings: at 1 µM
[11] = target: Cyclin-dependent kinase 18 (Homo sapiens) (UniProt Q07002); test: Selectivity interaction (KinomeScan (DiscoverX)) EUB0000291b CDK18; settings: at 1 µM
Sequence of Cyclin-dependent kinase 18 (Homo sapiens) (Q07002 whole entry): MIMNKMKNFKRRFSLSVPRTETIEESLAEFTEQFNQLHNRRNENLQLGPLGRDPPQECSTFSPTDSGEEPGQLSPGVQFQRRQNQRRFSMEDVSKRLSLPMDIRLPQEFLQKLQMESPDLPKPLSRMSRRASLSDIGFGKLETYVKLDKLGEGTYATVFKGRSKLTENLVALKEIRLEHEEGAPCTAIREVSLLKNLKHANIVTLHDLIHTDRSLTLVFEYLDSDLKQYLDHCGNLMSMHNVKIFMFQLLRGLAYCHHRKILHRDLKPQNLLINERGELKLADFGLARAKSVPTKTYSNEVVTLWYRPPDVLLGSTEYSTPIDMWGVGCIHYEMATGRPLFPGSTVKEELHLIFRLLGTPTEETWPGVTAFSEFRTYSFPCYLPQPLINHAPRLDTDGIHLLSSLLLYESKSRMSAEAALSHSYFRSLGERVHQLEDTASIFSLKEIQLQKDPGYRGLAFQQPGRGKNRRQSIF

[12] = target: Cyclin-dependent kinase 4 (Homo sapiens) (UniProt P11802); test: Selectivity interaction (KinomeScan (DiscoverX)) EUB0000291b CDK4; settings: at 1 µM
[13] = target: Cyclin-dependent kinase 11A (Homo sapiens) (UniProt Q9UQ88); test: Selectivity interaction (KinomeScan (DiscoverX)) EUB0000291b CDK11A; settings: at 1 µM
[14] = target: Proteinase-activated receptor 4 (Homo sapiens, UniProt Q96RI0); test: Selectivity interaction (Functional cellular assay (using HEK cells expressing F2RL3)) EUB0000291b F2RL3
Sequence of Proteinase-activated receptor 4 (Q96RI0 whole entry): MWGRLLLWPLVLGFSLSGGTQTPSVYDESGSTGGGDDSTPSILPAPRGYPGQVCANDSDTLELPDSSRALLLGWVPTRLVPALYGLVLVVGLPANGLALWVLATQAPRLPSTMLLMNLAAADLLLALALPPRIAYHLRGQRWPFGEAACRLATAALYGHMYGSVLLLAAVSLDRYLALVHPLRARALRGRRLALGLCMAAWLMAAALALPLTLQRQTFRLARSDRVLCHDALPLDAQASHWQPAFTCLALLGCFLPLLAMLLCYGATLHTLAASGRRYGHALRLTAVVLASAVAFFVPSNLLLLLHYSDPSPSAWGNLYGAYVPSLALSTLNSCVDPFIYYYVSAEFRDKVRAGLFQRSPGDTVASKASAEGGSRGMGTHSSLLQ

[15] = target: T2, Myosin-IIIb (Homo sapiens) (UniProt Q8WXR4); test: Selectivity interaction (KinomeScan (DiscoverX)) EUB0000548a MYO3B; settings: at 1 µM
T2 sequence (whole entry): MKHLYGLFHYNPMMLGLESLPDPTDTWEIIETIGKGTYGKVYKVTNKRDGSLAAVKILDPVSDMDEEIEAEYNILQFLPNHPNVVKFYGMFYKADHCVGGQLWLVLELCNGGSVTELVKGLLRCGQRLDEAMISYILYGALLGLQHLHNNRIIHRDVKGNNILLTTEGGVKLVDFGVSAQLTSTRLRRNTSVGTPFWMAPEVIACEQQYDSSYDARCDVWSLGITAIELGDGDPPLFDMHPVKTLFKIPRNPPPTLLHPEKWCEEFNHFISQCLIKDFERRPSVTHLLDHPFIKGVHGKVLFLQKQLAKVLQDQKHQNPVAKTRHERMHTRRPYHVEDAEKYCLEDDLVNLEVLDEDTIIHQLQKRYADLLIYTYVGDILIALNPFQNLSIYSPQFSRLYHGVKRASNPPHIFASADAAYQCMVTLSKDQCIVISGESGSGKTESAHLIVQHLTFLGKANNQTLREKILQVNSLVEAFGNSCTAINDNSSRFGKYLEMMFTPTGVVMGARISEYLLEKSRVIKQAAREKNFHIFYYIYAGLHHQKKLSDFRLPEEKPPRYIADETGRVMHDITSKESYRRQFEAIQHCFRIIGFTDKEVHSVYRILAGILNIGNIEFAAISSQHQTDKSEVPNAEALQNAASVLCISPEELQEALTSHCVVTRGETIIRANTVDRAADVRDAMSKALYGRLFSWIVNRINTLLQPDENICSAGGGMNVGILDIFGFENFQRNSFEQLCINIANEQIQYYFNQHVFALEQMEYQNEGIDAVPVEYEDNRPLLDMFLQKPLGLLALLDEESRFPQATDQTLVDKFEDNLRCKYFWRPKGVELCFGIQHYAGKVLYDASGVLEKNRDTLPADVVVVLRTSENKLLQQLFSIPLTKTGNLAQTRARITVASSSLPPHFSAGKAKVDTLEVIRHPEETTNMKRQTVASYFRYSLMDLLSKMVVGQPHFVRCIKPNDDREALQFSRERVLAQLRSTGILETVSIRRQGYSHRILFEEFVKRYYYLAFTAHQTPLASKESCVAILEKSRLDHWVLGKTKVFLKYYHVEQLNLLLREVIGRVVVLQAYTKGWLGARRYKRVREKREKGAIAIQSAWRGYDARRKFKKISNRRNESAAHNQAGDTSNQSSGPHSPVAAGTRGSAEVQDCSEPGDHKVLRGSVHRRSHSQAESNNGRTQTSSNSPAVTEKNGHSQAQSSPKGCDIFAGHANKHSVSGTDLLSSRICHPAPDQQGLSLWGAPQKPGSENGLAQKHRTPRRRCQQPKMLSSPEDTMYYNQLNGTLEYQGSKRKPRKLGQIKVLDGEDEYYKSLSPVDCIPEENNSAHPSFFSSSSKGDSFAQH

[16] = target: Receptor-type tyrosine-protein kinase FLT3 (Homo sapiens) (UniProt P36888); test: Selectivity interaction (KinomeScan (DiscoverX)) EUB0000548a FLT3; settings: at 1 µM
[17] = target: T3, Gamma-aminobutyric acid receptor subunit alpha-1 (Homo sapiens, UniProt P14867); test: Selectivity interaction (GPCR panel (PDSP screen)) EUB0000548a GABRA1
T3 sequence (P14867 whole entry): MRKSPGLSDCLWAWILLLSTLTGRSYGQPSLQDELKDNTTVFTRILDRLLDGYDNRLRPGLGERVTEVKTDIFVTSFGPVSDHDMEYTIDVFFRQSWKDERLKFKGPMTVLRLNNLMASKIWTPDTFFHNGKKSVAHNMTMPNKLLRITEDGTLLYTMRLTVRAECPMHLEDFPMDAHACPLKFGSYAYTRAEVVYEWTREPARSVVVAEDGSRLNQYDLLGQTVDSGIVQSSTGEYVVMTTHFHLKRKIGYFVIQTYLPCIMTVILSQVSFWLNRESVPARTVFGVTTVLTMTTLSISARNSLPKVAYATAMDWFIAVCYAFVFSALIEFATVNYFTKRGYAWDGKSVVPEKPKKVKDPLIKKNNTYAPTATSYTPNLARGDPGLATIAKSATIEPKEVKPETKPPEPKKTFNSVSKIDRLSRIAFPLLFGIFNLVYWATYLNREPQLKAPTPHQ

Sequence of Histone-lysine N-methyltransferase SMYD3 (Homo sapiens) (Q9H7B4 whole entry): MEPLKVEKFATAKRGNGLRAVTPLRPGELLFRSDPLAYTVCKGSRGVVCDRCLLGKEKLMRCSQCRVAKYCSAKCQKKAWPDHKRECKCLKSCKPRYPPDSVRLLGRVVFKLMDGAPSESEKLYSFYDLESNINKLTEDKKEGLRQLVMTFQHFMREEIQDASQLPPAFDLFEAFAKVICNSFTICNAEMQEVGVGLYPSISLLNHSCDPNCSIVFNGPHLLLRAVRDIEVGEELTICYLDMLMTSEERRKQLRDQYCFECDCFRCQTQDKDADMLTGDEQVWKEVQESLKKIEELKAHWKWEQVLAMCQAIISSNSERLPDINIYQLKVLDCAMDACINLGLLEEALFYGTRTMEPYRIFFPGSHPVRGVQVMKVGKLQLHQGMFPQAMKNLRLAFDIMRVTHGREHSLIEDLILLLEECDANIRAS
Sequence of Tyrosine-protein kinase Fyn (P06241 whole entry): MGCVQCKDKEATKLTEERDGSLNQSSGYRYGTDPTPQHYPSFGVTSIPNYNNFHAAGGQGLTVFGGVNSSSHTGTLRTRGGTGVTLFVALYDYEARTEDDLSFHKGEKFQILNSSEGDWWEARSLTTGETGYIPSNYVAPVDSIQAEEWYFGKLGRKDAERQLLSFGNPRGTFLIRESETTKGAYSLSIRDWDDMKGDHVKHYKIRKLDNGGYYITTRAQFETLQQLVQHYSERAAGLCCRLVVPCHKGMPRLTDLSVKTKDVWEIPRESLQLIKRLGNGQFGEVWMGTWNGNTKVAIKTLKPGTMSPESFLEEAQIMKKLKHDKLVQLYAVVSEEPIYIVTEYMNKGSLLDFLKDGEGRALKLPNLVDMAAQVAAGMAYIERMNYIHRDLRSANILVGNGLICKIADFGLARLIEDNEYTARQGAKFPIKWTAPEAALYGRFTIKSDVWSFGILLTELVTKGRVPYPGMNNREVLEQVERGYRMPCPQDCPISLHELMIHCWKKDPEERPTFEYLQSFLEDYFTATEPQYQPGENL

Q: `C[C@H]1CC(=O)Nc2cc(C(=O)NCCC3CC3)ccc2N1C(=O)N1CC2CC2C1` (some centres not stated) was tested. Which % of activity remaining [1] did it give?
A: 40%

Q: What about the IC50 [2] of the same compound?
A: 5.71 µM

Q: For `CNCc1ccccc1-c1csc([C@H](C)Nc2nc(C)nc3cc(OC)c(OC)cc23)c1` [BAY-294], which Ki [3] is on record?
A: 0.614 µM

Q: And the % of control [4]?
A: 51%

Q: And the % of control [5]?
A: 52%

Q: What does the source list for `O=C(N1CCS(=O)(=O)CC1)N1C[C@H](c2ccc(OC(F)(F)F)cc2)C[C@H](c2nc(C3CC3)no2)C1` [BAY-386]?
A: IC50 (Cannabinoid receptor 1 [6]): 10.6 µM; % of inhibition (Cannabinoid receptor 1 [7]): 88%; % of control [8]: 0%; % of control [9]: 53%; % of control [10]: 0%; % of control [11]: 0%; % of control [12]: 18%; % of control [13]: 0%; IC50 [14]: > 10 µM

Q: With `NS(=O)(=O)c1cc(NC(=O)C2(c3ccccc3Cl)CC2)ccc1Oc1cccc(Cl)c1` [BAY-207] as the compound, how does the % of control [15] read?
A: 29%

Q: What about the % of control [16] of the same compound?
A: 32%

Q: What about the Ki [17] of the same compound?
A: 0.25 µM
